Measured values taken from patent US4057684A, “Alkyl amino-glucopyranoside derivative and process for producing the same” (priority 1975, dated 1977).

Legend:
[1] = acute toxicity (LD50) in mice; type: in vivo, mouse (ICR)
leukemia L-1210 = assay: increase in life span and survival of leukemia L-1210 implanted mice; type: in vivo, mouse (BDF1)
Excerpt: (§1) Results of pharmacological studies for amino-glucopyranoside [I] according to the invention are described below. The test compounds which were used included methyl N-carbamyl-N'-(2-chloroethyl)-N'-nitroso-2-amino-2-deoxy-α-D-glucopyranoside and methyl N-carbamyl-N'-(2-chloroethyl)-N'-nitroso-6-amino-6-deoxy-α-D-glucopyranoside (hereinafter abbreviated to 2MCαG and 6MCαG, respectively). The control compounds which were employed were 1-(2-chloroethyl)-3-cyclohexyl-1-nitrosoourea (hereinafter abbreviated to CCNU), which had been widely applied as a control compound in such a pharmacological test of the streptozotocin derivatives, and GCNU referred to previously. The tumor systems which were used were leukemia L-1210, Nakahara-Fukuoka sarcoma, adenocarcinoma-755, ascites sarcoma 180 and Ehrlich ascites carcinoma (hereinafter abbreviated to L-1210, NFS, Ca-755, S-180A and EAC, respectively), and the antitumor activities were determined by a procedure of the National Cancer Center, Tokyo (A. Hoshi et al.: Farumashia 9, 464(1973)). The test animals which were used were ICR and BDF1 mice.
(§2) ^a Treatment was initiated 24 hr after implantation of tumor (day 1):
(§3) D1~5 = qd, day 1~5; D1 = day 1 only.
^d % increase in life span (mean survival time) over controls.
^e 60 days survivors/total in treated group.

[2] = tested on: Nakahara-Fukuoka sarcoma (NFS); assay: antitumor effect against Nakahara-Fukuoka sarcoma (NFS) implanted in mice; type: in vivo, mouse (ICR)
Excerpt: as §1, §2, §3
(§4) ^b T/C is expressed as the tumor weight ratio in solid tumors or tota
(§5) packed cell volume ratio in ascites tumors of treated/control.

[3] = tested on: solid as well as ascites tumor systems; assay: antitumor activity in the tumor systems (overall); type: in vivo, mouse; conditions: mouse, in vivo
Excerpt: as §1

bacteria = assay: antibacterial activity, broth dilution method
[4] = tested on: adenocarcinoma-755 (Ca-755); assay: antitumor effect against adenocarcinoma-755 (Ca-755) implanted in mice; type: in vivo, mouse (BDF1)
Excerpt: as §1, §2, §3, §4, §5

[5] = peripheral white blood cell counts (bone marrow toxicity) and survival in normal male ICR mice; type: in vivo, mouse (ICR)
Experimental: Such peripheral white blood cell counts were performed as follows: Normal male ICR mice were used in groups of tens and the test compounds for treatment were made into their respective solutions. 2MCαG and 6MCαG were dissolved in physiological saline solutions, while CCNU and GCNU were suspended in 0.5% CMC aqueous solution and 50% PEG aqueous solution, respectively. A single administration at volume of 1 ml per 100 g body weight of animal (0.1 ml/10 g) was given intraperitoneally, and the peripheral white blood cell counts were performed 3, 8 and 15 days after administration of the test compounds.

[6] = blood sugar level / diabetogenic activity; type: in vivo, rat (male Wister); conditions: rat, in vivo
[7] = 12.5 mg/kg/day ip D1~5, ICR mice
[8] = 25.0 mg/kg/day ip D1~5, ICR mice
[9] = 35.0 mg/kg/day ip D1~5, ICR mice
[10] = 50.0 mg/kg/day ip D1~5, ICR mice
[11] = 6.3 mg/kg/day ip D1~5, BDF1 mice
[12] = 12.5 mg/kg/day ip D1~5, BDF1 mice
[13] = 25.0 mg/kg/day ip D1~5, BDF1 mice
[14] = 50.0 mg/kg/day ip D1~5, BDF1 mice

For CO[C@H]1O[C@H](CNC(=O)N(CCCl)N=O)[C@@H](O)[C@H](O)[C@H]1O [Example 6MCαG, methyl N-carbamyl-N'-(2-chloroethyl)-N'-nitroso-6-amino-6-deoxy-α-D-glucopyranoside], the “toxicity compared with 2MCαG” value ([1]; by LD50, single administration) was “less toxic than 2MCαG”, the LD50 ([1]; mouse, in vivo, single administration) was 91 mg/kg and the ILS (leukemia L-1210; 3.0 mg/kg/day ip D1~5) was > 292%. For the same molecule, the “Survivors (60 days survivors/total)” value (leukemia L-1210; 3.0 mg/kg/day ip D1~5) was 2/6, the ILS (leukemia L-1210; 6.0 mg/kg/day ip D1~5) was > 639% and the “Survivors (60 days survivors/total)” value (leukemia L-1210; 6.0 mg/kg/day ip D1~5) was 3/6. For the same molecule, the ILS (leukemia L-1210; 6.0 mg/kg/day po D1~5) was > 580%, the “Survivors (60 days survivors/total)” value (leukemia L-1210; 6.0 mg/kg/day po D1~5) was 4/6 and the ILS (leukemia L-1210; 10.0 mg/kg/day ip D1~5) was > 645%. The “Survivors (60 days survivors/total)” value (leukemia L-1210; 10.0 mg/kg/day ip D1~5) was 3/6, the ILS (leukemia L-1210; 12.5 mg/kg/day ip D1~5) was > 520% and the “Survivors (60 days survivors/total)” value (leukemia L-1210; 12.5 mg/kg/day ip D1~5) was 4/6. For the same molecule, the ILS (leukemia L-1210; 12.5 mg/kg/day po D1~5) was > 570%, the “Survivors (60 days survivors/total)” value (leukemia L-1210; 12.5 mg/kg/day po D1~5) was 4/6 and the ILS (leukemia L-1210; 25.0 mg/kg/day ip D1~5) was > 615%. For the same molecule, the “Survivors (60 days survivors/total)” value (leukemia L-1210; 25.0 mg/kg/day ip D1~5) was 4/6, the ILS (leukemia L-1210; 25.0 mg/kg/day po D1~5) was > 620% and the “Survivors (60 days survivors/total)” value (leukemia L-1210; 25.0 mg/kg/day po D1~5) was 4/6. For the same molecule, the ILS (leukemia L-1210; 35.0 mg/kg ip D1 only) was > 717%, the “Survivors (60 days survivors/total)” value (leukemia L-1210; 35.0 mg/kg ip D1 only) was 6/6 and the ILS (leukemia L-1210; 40.0 mg/kg/day ip D1~5) was > 237%. The “Survivors (60 days survivors/total)” value (leukemia L-1210; 40.0 mg/kg/day ip D1~5) was 2/6, the ILS (leukemia L-1210; 45.0 mg/kg ip D1 only) was > 717% and the “Survivors (60 days survivors/total)” value (leukemia L-1210; 45.0 mg/kg ip D1 only) was 6/6. The ILS (leukemia L-1210; 6-25 mg/kg/day, 5 successive administrations, ip or orally) was 520-645%, the “activity against L-1210 compared with CCNU and GCNU” value (leukemia L-1210; mouse, in vivo) was “more active against L-1210” and the ILS (leukemia L-1210; single ip, 35-45 mg/kg) was 717%. The animals survived (leukemia L-1210; single ip, 35-45 mg/kg) was “all six animals survived”, the Activity [2, 7] was “- (100~71% = -)” and the T/C [2, 7] was 77.8%. The Activity [2, 8] was “+ (70~51% = +)”, the T/C [2, 8] was 61.6% and the Activity [2, 9] was “++ (50~21% = ++)”. The T/C [2, 9] was 38.8%, the Activity [2, 10] was “Toxic” and the T/C [2, 10] was 34.1%. The died/used [2, 10] was 6/6, the “antitumor effect compared with CCNU” value ([2]; ip, 5 successive days) was “more active than CCNU” and the antitumor activity [3] was “activity against solid as well as ascites tumor systems”. For the same molecule, the antibacterial activity (bacteria) was “free from diabetogenic and antibacterial activities”, the Activity [4, 11] was “+ (70~51% = +)” and the T/C [4, 11] was 53.4%. For the same molecule, the Activity [4, 12] was “+++ (20~0% = +++)”, the T/C [4, 12] was 16.3% and the Activity [4, 13] was “+++ (20~0% = +++)”. The T/C [4, 13] was 7.6%, the Activity [4, 14] was “Toxic” and the T/C [4, 14] was 0%. The died/used [4, 14] was 6/6, the “antitumor effect compared with CCNU” value ([4]; ip, 5 successive days) was “more active than CCNU” and the “Death rate (death/used)” value ([5]; 40 mg/kg ip single) was 0/10. For the same molecule, the “Average count of WBC” value ([5]; 40 mg/kg ip single, day 3) was 73.2±3.5 x 10^2 WBC/mm^3, the “Average count of WBC” value ([5]; 40 mg/kg ip single, day 8) was 105.7±3.8 x 10^2 WBC/mm^3 and the “Average count of WBC” value ([5]; 40 mg/kg ip single, day 15) was 136.9±10.0 x 10^2 WBC/mm^3. The “Death rate (death/used)” value ([5]; 60 mg/kg ip single) was 0/10, the “Average count of WBC” value ([5]; 60 mg/kg ip single, day 3) was 41.1±4.1 x 10^2 WBC/mm^3 and the “Average count of WBC” value ([5]; 60 mg/kg ip single, day 8) was 73.5±5.8 x 10^2 WBC/mm^3. For the same molecule, the “Average count of WBC” value ([5]; 60 mg/kg ip single, day 15) was 110.4±6.3 x 10^2 WBC/mm^3, the “Death rate (death/used)” value ([5]; 100 mg/kg ip single) was 2/10 and the “Average count of WBC” value ([5]; 100 mg/kg ip single, day 3) was 31.2±2.5 x 10^2 WBC/mm^3. For the same molecule, the “Average count of WBC” value ([5]; 100 mg/kg ip single, day 8) was 71.9±4.9 x 10^2 WBC/mm^3, the “Average count of WBC” value ([5]; 100 mg/kg ip single, day 15) was 99.8±10.8 x 10^2 WBC/mm^3 and the “Death rate (death/used)” value ([5]; 150 mg/kg ip single) was 10/10. For the same molecule, the “Average count of WBC” value ([5]; 150 mg/kg ip single, day 3) was 28.1±3.8 x 10^2 WBC/mm^3, the “Average count of WBC” value ([5]; 150 mg/kg ip single, day 8) was 61.0 x 10^2 WBC/mm^3 and the incidence of leukopenia ([5]; LD10 doses) was “comparatively mild with rapid return to pretreatment levels”. For the same molecule, the “acute toxicity compared with GCNU or CCNU” value ([5]; mouse, in vivo) was “much lower than that of either GCNU or CCNU”, the bone marrow toxicity ([5]; mouse, in vivo) was “improved bone marrow toxicity” and the “bone marrow toxicity compared with CCNU” value ([5]; mouse, in vivo) was “less toxic”. The “bone marrow toxicity compared with GCNU” value ([5]; mouse, in vivo) was “equivalent values as GCNU” and the diabetogenic activity [6] was “free from diabetogenic”.
